Activity calls are given as the source filed them.
Tests used:
Caspase-3 = biological target: T1, Caspase-3 (Homo sapiens, UniProt P42574); assay: caspase-3 inhibitors as off-family protease, SAR follow-up, selectivity assay for SENP protease inhibitor project, biochemical, luminescence, set 2 (AID 588599); assay type: functional
T1 sequence (P42574 whole entry): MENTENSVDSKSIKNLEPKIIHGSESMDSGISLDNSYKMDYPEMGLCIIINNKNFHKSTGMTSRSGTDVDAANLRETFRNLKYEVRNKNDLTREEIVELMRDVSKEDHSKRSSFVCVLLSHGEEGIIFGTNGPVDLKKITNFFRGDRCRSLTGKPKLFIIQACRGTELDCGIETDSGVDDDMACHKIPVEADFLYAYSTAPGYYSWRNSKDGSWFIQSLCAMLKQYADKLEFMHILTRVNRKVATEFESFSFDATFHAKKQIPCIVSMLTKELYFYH

[1] = biological target: T2, Sentrin-specific protease 8 (Homo sapiens, UniProt Q96LD8); assay: SENP8 protease inhibitors, SAR follow-up, biochemical, luminescence, set 2 (AID 588601); assay type: functional
T2 sequence (Q96LD8 whole entry): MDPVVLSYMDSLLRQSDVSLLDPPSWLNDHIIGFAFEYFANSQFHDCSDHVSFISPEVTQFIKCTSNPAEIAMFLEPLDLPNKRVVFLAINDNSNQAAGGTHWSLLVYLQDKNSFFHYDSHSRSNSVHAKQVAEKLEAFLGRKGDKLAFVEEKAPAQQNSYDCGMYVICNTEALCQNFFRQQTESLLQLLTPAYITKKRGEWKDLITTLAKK

[2] = biological target: T3, Sentrin-specific protease 7 (Homo sapiens, UniProt Q9BQF6); assay: SENP7 protease inhibitors, SAR follow-up, biochemical, luminescence, set 2 (AID 588600); assay type: functional
T3 sequence (Q9BQF6 whole entry): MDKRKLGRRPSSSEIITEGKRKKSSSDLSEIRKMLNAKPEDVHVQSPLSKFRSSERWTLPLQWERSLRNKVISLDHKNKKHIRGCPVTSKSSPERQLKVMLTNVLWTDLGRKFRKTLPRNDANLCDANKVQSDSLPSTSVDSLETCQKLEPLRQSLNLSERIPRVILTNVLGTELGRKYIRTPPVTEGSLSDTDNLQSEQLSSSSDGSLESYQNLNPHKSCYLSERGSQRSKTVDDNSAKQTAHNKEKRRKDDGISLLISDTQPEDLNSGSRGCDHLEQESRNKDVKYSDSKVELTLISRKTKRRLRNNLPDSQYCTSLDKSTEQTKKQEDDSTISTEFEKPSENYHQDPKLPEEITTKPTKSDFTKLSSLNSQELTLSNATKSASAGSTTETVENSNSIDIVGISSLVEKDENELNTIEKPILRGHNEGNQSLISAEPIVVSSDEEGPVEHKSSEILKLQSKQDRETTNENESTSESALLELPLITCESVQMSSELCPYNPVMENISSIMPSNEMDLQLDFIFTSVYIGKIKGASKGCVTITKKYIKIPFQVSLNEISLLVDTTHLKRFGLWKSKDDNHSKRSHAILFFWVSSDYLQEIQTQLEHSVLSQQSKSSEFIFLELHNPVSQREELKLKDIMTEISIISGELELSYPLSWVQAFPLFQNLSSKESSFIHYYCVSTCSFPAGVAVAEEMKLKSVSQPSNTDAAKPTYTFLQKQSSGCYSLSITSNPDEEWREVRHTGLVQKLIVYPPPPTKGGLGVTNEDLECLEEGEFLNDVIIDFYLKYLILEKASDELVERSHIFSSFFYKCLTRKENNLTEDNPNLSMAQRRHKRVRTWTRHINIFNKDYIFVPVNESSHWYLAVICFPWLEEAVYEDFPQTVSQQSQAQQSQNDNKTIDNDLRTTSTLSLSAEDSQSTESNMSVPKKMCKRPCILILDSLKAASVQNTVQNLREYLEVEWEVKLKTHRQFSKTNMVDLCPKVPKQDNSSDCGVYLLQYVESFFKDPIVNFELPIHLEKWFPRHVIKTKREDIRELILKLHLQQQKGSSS

[3] = biological target: T4, Sentrin-specific protease 6 (Homo sapiens, UniProt Q9GZR1); assay: SENP6 protease inhibitors, SAR follow-up, biochemical, luminescence, set 2 (AID 588598); assay type: functional
T4 sequence (Q9GZR1 whole entry): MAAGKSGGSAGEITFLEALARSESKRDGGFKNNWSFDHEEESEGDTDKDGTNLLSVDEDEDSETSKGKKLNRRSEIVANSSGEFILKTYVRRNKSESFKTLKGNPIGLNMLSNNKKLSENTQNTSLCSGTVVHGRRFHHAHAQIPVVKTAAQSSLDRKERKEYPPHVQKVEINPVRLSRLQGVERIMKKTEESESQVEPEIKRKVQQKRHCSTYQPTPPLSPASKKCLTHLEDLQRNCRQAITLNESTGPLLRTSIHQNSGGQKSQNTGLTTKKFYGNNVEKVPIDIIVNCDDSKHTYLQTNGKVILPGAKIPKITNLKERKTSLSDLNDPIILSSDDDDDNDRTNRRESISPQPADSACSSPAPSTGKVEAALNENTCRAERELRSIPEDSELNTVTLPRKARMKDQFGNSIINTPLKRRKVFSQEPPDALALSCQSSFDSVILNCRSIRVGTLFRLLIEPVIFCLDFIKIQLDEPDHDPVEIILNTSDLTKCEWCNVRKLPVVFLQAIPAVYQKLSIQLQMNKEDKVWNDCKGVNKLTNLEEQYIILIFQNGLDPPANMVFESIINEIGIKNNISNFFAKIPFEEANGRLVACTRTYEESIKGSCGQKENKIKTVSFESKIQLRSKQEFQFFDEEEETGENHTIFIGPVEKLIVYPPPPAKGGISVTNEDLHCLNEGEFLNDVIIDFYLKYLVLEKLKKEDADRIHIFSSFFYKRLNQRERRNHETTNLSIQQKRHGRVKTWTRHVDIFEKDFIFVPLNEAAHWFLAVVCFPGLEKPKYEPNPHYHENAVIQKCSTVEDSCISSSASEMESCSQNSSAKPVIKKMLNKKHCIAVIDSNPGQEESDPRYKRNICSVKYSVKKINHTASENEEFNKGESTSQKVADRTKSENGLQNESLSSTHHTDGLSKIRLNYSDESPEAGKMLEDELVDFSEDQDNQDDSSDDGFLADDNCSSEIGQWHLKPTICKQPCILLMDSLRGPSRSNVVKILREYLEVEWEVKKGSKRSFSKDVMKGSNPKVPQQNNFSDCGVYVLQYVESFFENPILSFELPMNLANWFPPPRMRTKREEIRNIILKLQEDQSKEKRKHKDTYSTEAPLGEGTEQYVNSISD

HEK293 [4] = assay: cytotoxicity in HEK293T NF-kB-Luc cells, SAR follow-up, cytotoxicity control for NF-kB activator project, cell-based, resazurin fluorescence (AID 493251); assay type: functional; conditions: Homo sapiens
Jurkat = assay: SAR Analysis of small molecule inhibitors of T-cell specific antigen receptor-induced NF-kB activation in a Jurkat cell line using a luminescence assay. [Related pubchem assays (depositor defined):AID435003, AID435012, AID465]; assay type: functional, cell-based; conditions: Homo sapiens
HEK293 [5] = assay: SAR Analysis of small molecule inhibitors of T-cell specific antigen receptor-induced NF-kB activation in a HEK-293T cell line using a luminescence assay. [Related pubchem assays (depositor defined):AID435003, AID435012, AID489026]; assay type: functional, cell-based; conditions: Homo sapiens
[6] = test system: Streptococcus sp. 'group A'; assay: growth inhibition of control SK(-) GAS strain, dose response, counter-screen for streptokinase expression inhibitor project, luminescence, kanamycin, BacTiterGlo, confirmation (AID 1900); assay type: functional, organism-based
Streptococcus = assay: Group A Streptococcus viability loss, dose response, counter-screen for streptokinase expression inhibitor project, luminescence, BacTiterGlo (AID 1915); assay type: functional, organism-based;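 further: potency for reduction of bacterial viability or growth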
CHO-K1 = assay: Counterscreen for antagonists of the orexin 1 receptor (OX1R; HCRTR1): Homogeneous time resolved fluorescence (HTRF)-based cell-based dose response assay to identify antagonists of the parental CHO-K1 cell line. [Related pubchem assays (depositor defined):AID434989, AID435008, AID463079, AID485270, AID492963, AID492964, AID492965, AID493232, AID504699, AID504701]; assay type: functional; conditions: Cricetulus griseus
[7] = Counterscreen for antagonists of the orexin 1 receptor (OX1R; HCRTR1): Fluorescence-based cell-based high throughput dose response assay to identify antagonists of the parental CHO cell line. [Related pubchem assays (depositor defined):AID434989, AID435008, AID463079, AID485270, AID492963, AID492964, AID492965, AID493232, AID504699, AID504701]; assay type: functional
[8] = biological target: T5, Orexin/Hypocretin receptor type 1 (Homo sapiens, UniProt O43613); assay: Homogeneous Time Resolved Fluorescence (HTRF)-based cell-based high throughput dose response assay for antagonists of the orexin 1 receptor (OX1R; HCRTR1). [Related pubchem assays (depositor defined):AID434989, AID435008, AID463079, AID485270, AID492963, AID492964, AID492965, AID493232, AID504717, AID504718]; assay type: functional
[9] = biological target: T5, Orexin/Hypocretin receptor type 1; assay: Fluorescence-based cell-based high throughput dose response assay for antagonists of the orexin 1 receptor (OX1R; HCRTR1). [Related pubchem assays (depositor defined):AID434989, AID435008, AID463079, AID485270, AID492963, AID492964, AID492965, AID493232, AID504717, AID504718]; assay type: functional
Orexin receptor type 2 [10] = biological target: T6, Orexin receptor type 2 (Homo sapiens, UniProt O43614); assay: Counterscreen assay for antagonists of the orexin 1 receptor (OX1R; HCRTR1): Fluorescence-based cell-based dose response assay for antagonists of the orexin 2 receptor (OX2R; HCRTR2), run by assay provider.; assay type: functional
Orexin receptor type 2 [11] = biological target: T6, Orexin receptor type 2; assay: Counterscreen assay for antagonists of the orexin 1 receptor (OX1R; HCRTR1): Homogeneous Time Resolved Fluorescence (HTRF)-based cell-based dose response assay for antagonists of the orexin 2 receptor (OX2R; HCRTR2), run by assay provider.; assay type: functional
INS1 [12] = assay: protection of INS-1E cells from cytokine death, dose response, ATP luminescence, dry powder (AID 488844); assay type: functional, cell-based; conditions: Rattus norvegicus
[13] = inhibitors of cytokine-induced nitrite release, dose response, cell-based, Griess absorbance, INS-1E, dry powder, set 3 (AID 488870); assay type: functional; conditions: Rattus norvegicus
INS1 [14] = assay: inhibitors of cytokine-induced nitrite release, dose response, cell-based, Griess absorbance, INS-1E, dry powder, set 2 (AID 488868); assay type: functional; conditions: Rattus norvegicus
[15] = biological target: T7, Acyl-homoserine lactone acylase PvdQ (Pseudomonas aeruginosa (strain LESB58), UniProt Q9I194); assay: P. aeruginosa PvdQ acylase inhibitors, dose response, biochemical, fluorescence, plate reader and imaging, cherry-picks (AID 493231)
T7 sequence (Q9I194 whole entry): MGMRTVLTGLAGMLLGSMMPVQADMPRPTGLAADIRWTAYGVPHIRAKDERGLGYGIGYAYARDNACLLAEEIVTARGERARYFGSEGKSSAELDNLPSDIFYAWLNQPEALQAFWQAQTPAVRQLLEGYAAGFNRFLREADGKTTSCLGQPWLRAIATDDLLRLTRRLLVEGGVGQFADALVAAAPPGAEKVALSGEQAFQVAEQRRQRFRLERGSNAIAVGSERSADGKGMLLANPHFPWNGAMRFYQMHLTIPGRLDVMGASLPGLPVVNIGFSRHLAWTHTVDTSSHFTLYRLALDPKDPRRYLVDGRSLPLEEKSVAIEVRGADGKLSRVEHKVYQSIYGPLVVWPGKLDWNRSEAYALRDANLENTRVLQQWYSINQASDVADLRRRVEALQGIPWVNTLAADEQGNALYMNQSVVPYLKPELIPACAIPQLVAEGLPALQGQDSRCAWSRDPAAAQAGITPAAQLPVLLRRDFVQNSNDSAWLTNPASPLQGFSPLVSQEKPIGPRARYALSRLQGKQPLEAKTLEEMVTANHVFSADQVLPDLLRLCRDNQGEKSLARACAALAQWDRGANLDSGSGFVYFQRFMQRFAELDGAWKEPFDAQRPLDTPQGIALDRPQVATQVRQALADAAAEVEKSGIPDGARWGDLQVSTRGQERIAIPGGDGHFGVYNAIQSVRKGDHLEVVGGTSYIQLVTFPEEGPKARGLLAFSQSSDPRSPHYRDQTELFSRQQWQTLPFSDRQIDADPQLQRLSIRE

HEK293 [16] = assay: inhibitors of LMP1-driven NF-kB reporter, dose response, cell-based, HEK293, luciferase, cherry-pick (AID 588343); assay type: functional; conditions: Homo sapiens
[17] = biological target: Latent membrane protein 1 (Human herpesvirus 4 (strain B95-8), UniProt P03230); assay: TES1-eGFP NF-kB reporter inhibition versus Tet-On dsRED, dose response, selectivity assay for LMP1 NF-kB inhibitor project, imaging, HEK293T, dual-color eGFP/dsRED, cherry-picks (AID 588398); assay type: functional, cell-based
[18] = Luminescence Cell-Based Dose Response Follow up to Identify Inhibitors of Platelet Dense Granule Release. [Related pubchem assays (depositor defined):AID1663, AID1678, AID2398]; assay type: functional

T5 sequence (O43613 whole entry): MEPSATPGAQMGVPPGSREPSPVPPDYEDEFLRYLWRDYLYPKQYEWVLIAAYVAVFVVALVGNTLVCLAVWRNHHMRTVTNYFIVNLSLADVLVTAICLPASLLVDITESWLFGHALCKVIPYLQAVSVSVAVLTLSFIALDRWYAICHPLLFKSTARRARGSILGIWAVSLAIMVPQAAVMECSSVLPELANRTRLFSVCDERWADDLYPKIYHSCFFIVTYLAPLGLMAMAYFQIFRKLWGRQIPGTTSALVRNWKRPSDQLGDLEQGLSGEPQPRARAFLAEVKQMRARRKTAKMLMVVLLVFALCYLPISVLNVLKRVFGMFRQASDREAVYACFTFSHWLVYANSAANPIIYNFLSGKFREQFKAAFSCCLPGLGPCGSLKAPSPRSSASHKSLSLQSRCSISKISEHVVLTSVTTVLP
T6 sequence (O43614 whole entry): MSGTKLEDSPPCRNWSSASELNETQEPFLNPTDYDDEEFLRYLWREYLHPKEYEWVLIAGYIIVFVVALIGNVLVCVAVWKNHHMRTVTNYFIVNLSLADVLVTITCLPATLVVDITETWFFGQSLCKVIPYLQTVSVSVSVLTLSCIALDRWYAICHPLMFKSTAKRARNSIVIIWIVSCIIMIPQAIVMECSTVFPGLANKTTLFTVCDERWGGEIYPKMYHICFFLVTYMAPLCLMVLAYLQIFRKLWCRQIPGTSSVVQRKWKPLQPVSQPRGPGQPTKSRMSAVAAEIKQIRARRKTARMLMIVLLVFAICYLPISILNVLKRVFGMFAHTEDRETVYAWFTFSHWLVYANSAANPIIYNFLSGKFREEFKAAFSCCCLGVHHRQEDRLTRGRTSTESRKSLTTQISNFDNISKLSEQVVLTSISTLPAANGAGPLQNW
Latent membrane protein 1, sequence (P03230 whole entry): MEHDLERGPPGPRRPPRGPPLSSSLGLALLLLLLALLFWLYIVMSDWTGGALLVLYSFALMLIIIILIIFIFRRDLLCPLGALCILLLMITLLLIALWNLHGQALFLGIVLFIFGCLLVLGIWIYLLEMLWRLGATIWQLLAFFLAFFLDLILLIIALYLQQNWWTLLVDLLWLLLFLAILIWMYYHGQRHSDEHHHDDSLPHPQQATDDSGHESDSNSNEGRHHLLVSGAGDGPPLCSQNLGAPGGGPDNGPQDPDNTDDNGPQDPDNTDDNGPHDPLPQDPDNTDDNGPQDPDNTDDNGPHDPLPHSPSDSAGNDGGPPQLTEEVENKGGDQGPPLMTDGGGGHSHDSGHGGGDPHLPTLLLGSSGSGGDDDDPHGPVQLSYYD

## O=C(N/N=C/c1c[nH]c2ccccc12)C1CC1c1ccccc1 (configuration not stated)
Caspase-3
  IC50: > 99 µM (inactive)
[1]
  IC50: > 99 µM (inactive)
[2]
  IC50: > 99 µM (inactive)
[3]
  IC50: > 99 µM (inactive)

## COc1cccc(C(=O)Nc2ccc3[nH]c(-c4cccc(OC)c4)cc(=O)c3c2)c1
HEK293 [4]
  IC50: 42.2 µM (inactive)
Jurkat
  IC50: > 79 µM (inactive)
HEK293 [5]
  IC50: > 79 µM (inactive)

## CCSc1nnc(NC(=O)c2ccc3ccccc3n2)s1
[6]
  EC50: 2.08 µM (active)
Streptococcus
  EC50: 6.46 µM (active)
CHO-K1
  IC50: > 66.2 µM (inactive)
[7]
  IC50: > 49.7 µM (inactive)
[8]
  IC50: 2.67 µM (active)
[9]
  IC50: 6.86 µM (active)
Orexin receptor type 2 [10]
  IC50: > 88.8 µM (inactive)
Orexin receptor type 2 [11]
  IC50: > 50 µM (inactive)

## C[C@@H]1CN([C@@H](C)CO)C(=O)c2cccc(NC(=O)Nc3cccc4ccccc34)c2O[C@H]1CN(C)S(=O)(=O)c1ccc2c(c1)OCO2
INS1 [12]
  AC50: 49.4 µM (active)
[13]
  AC50: > 195 µM (inactive)
INS1 [14]
  AC50: 29.8 µM (active)

## Cc1cc(NC(=O)c2ccc3c(c2)OCCO3)no1
[15]
  AC50: 49.6 µM (active)
HEK293 [16]
  AC50: 4.15 µM (active)
[17]
  AC50: 32.7 µM (active)

## CC(=O)N/N=C(\C)c1ccc(NC(=O)C2CC2)cc1
[18]
  EC50: 500 µM (inactive)

Source: ChEMBL document CHEMBL1201862, “PubChem BioAssay data set” (2004)
